In ChEMBL document CHEMBL1201862, “PubChem BioAssay data set” (2004):
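Test compounds were applied to cells in 96-well plates for 48 hours at 5 doses. GI50 is the concentration that inhibits growth by half.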 Calls of active or inactive are those of the source. Rule as the data show it: active = GI50 up to about 1.1 µM and inactive = higher.

Legend:
Test in all cases: NCI-60 cell line screen, 48 h
[1] = test system: SNB-19
[2] = test system: DLD-1
[3] = test system: NCI-H460
[4] = test system: SF-268
[5] = test system: SN12C
[6] = test system: 786-0
[7] = test system: SF-539
[8] = test system: NCI-H522
[9] = test system: IGROV-1
[10] = test system: CAKI-1
[11] = test system: K562
[12] = test system: SK-OV-3
[13] = test system: OVCAR-4
[14] = test system: HOP-62
[15] = test system: TK-10
[16] = test system: HCT-15
[17] = test system: LOX IMVI
[18] = test system: HT-29
[19] = test system: SK-MEL-5
[20] = test system: U-251
[21] = test system: DMS-114
[22] = test system: NCI-H23
[23] = test system: HOP-92
[24] = test system: EKVX
[25] = test system: HCC 2998
[26] = test system: HOP-18
[27] = test system: HL-60
[28] = test system: ACHN
[29] = test system: KM12
[30] = test system: SR
[31] = test system: RXF 631
[32] = test system: MOLT-4
[33] = test system: OVCAR-3
[34] = test system: UACC-62
[35] = test system: A549
[36] = test system: M14
[37] = test system: RXF 393
[38] = test system: CCRF-CEM
[39] = test system: NCI-H226
[40] = test system: UO-31
[41] = test system: LXFL 529
[42] = test system: OVCAR-8
[43] = test system: SW-620
[44] = test system: COLO 205
[45] = test system: HCT-116
[46] = test system: SNB-75
[47] = test system: A498
[48] = test system: SNB-78
[49] = test system: KM-20L2
[50] = test system: Malme-3M
[51] = test system: OVCAR-5
[52] = test system: M19-MEL
[53] = test system: RPMI-8226
[54] = test system: UACC-257
[55] = test system: SF-295
[56] = test system: SK-MEL-28

In the case of `CC1=CCP(C(F)(F)F)P(C(F)(F)F)C1` (stereo unspecified), the GI50 [1] is reported as > 100 µM (inactive), the GI50 [2] is reported as > 100 µM (inactive) and the GI50 [3] is reported as > 100 µM (inactive). The GI50 [4] was > 100 µM (inactive), the GI50 [5] was > 100 µM (inactive) and the GI50 [6] was > 100 µM (inactive). For the same compound, the GI50 [7] was > 100 µM (inactive), the GI50 [8] was > 100 µM (inactive) and the GI50 [9] was > 100 µM (inactive). For the same compound, the GI50 [10] was > 100 µM (inactive), the GI50 [11] was > 100 µM (inactive) and the GI50 [12] was > 100 µM (inactive). The GI50 [13] was > 100 µM (inactive), the GI50 [14] was > 100 µM (inactive) and the GI50 [15] was > 100 µM (inactive). The GI50 [16] was > 100 µM, the GI50 [17] was > 100 µM (inactive) and the GI50 [18] was > 100 µM (inactive). The GI50 [19] was > 100 µM (inactive), the GI50 [20] was > 100 µM (inactive) and the GI50 [21] was > 100 µM (inactive). The GI50 [22] was > 100 µM (inactive), the GI50 [23] was > 100 µM (inactive) and the GI50 [24] was > 100 µM (inactive). For the same compound, the GI50 [25] was > 100 µM (inactive), the GI50 [26] was > 100 µM (inactive) and the GI50 [27] was > 100 µM (inactive). For the same compound, the GI50 [28] was > 100 µM (inactive), the GI50 [29] was > 100 µM (inactive) and the GI50 [30] was > 100 µM (inactive). For the same compound, the GI50 [31] was > 100 µM (inactive), the GI50 [32] was > 100 µM (inactive) and the GI50 [33] was > 100 µM (inactive). For the same compound, the GI50 [34] was > 100 µM (inactive), the GI50 [35] was > 100 µM (inactive) and the GI50 [36] was > 100 µM (inactive). The GI50 [37] was 5.55 µM (inactive), the GI50 [38] was > 100 µM (inactive) and the GI50 [39] was > 100 µM (inactive). The GI50 [40] was > 100 µM (inactive), the GI50 [41] was > 100 µM (inactive) and the GI50 [42] was > 100 µM (inactive). For the same compound, the GI50 [43] was > 100 µM (inactive), the GI50 [44] was > 100 µM (inactive) and the GI50 [45] was > 100 µM (inactive). For the same compound, the GI50 [46] was > 100 µM (inactive), the GI50 [47] was > 100 µM (inactive) and the GI50 [48] was > 100 µM (inactive). For the same compound, the GI50 [49] was > 100 µM (inactive), the GI50 [50] was > 100 µM (inactive) and the GI50 [51] was > 100 µM (inactive). The GI50 [52] was > 100 µM (inactive), the GI50 [53] was > 100 µM (inactive) and the GI50 [54] was > 100 µM (inactive). For the same compound, the GI50 [55] was > 100 µM (inactive) and the GI50 [56] was > 100 µM (inactive).
